# Test results as given in patent US20250249001A1, “METHODS OF TREATING SUBSTANCE USE DISORDER WITH 4-(3-CYANOPHENYL)-6-PYRIDINYLPYRIMIDINE MGLU5 NEGATIVE ALLOSTERIC MODULATORS” (Tempero Bio, Inc., priority 2022, published 2025).
# Experiments:
# [1] = tested on: cocaine reinstatement in rats; experiment: Yohimbine-induced reinstatement of cocaine self-administration (Stage II); format: in vivo, Sprague-Dawley rats
# Procedure: After completion of Stage I, the rats were re-trained with cocaine for one week to ensure stable baseline. And then the rats underwent a 6-day extinction training procedure in which only saline infusion occurred when active lever was pressed. Meanwhile, the rats were divided into 3 roughly even groups for pharmacological stressor-induced reinstatement—All rats received one injection of alpha-2 adrenergic antagonist yohimbine (2 mg/kg) and then placed into the training box immediately). Thirty min before yohimbine treatment, one group of rats received saline, another group received MTEP 3 mg/kg injection, and the 3rd group received Compound 1 at 3 mg/kg.
# Yohimbine-induced reinstatement was re-tested two more times in the same rats 3 days and 6 days after the first test, under continuous extinction procedure (There were 2 more days of extinction training between the 1st and 2nd reinstatement test, and between the 2nd and 3rd reinstatement test). Using the 3×3 within subject design, each given animal goes through all three treatments (saline, MTEP and Compound 1) across the three rounds of test.
# (§1) A one-way mixed-effects model (REML) of ANOVA followed by Dunnett's post hoc tests were used to analyze efficacy of Compound 1 and MTEP on cocaine self-administration in stages I (The repeated measure ANOVA was not totally applicable due to a few outlier data points, which are removed), and one-way mixed-effects model (REML) of ANOVA followed by Tukey's post hoc tests were used in Stage II. An effect was considered significant if P<0.05. Data were represented as the mean and standard error to the mean (s.e.m).
# Statistical outliers which exceeded mean +/− (2× standard deviation) of the group were removed from the analysis. Also, for reinstatement, the extinction time was shortened (from 9 days plus extension as option to 6 days). In the present study, 3 rounds of reinstatement tests were performed, and we wished to maintain the reinstatement power, thus we cut extinction duration. Accordingly, we loosened the extinction criterion from 6 or less infusions to 9 or less infusions during the last extinction session. With this criterion, 17 out of 21 rats were eligible in drug test in Stage II.
# [2] = tested on: oxycodone reinstatement in rats; experiment: Yohimbine-induced reinstatement of oxycodone self-administration; format: in vivo, Sprague-Dawley rats; settings: yohimbine 2 mg/kg; P<0.001
# Procedure: Evaluation of Compound 1 on Oxycodone Reinstatement. After completion of testing rats were re-trained with oxycodone for one week to ensure stable baseline. Rats then underwent a 6-day extinction where only saline infusion occurred when active lever was pressed. Meanwhile, the rats were divided into 3 groups: All rats received one injection of alpha-2 adrenergic antagonist yohimbine (2 mg/kg) with 0 min pretreatment (rats were placed into the training box immediately). Thirty minutes before yohimbine treatment, one group of rats received saline, another group received MTEP 3 mg/kg injection, and the 3rd group received Compound 1 (3 mg/kg). Yohimbine-induced reinstatement was re-tested two more times in the same rats 3 days and 6 days after the first test, under continuous extinction procedure.
# as §1, with “Statistical Analysis. Prism 9.40 software package Version 9 was used for statistical analysis and graphing. The number of active lever responses were recorded during each session and compared between treatment groups. A one-way” for “A one-way”, “MTEP on oxycodone self-administration in” for “MTEP on cocaine self-administration in”, “mean (s.e.m). Statistical outliers which exceeded mean +/− (2× standard deviation) of the group were removed from the analysis.” for “mean (s.e.m).”
# [3] = tested on: voluntary home-cage alcohol drinking by Wistar rats; experiment: Home-cage two-bottle choice alcohol drinking, acute treatment; format: in vivo; settings: each drug 3 mg/kg i.p. acute
# Procedure: Animals: Male Wistar rats (Charles River Laboratories, INC) were used in these studies. Rat housing and testing was conducted at the University of North Carolina at Chapel Hill (UNC-CH) School of Medicine in a state-of-the-art rodent vivarium approved by the Association for Assessment and Accreditation of Laboratory Animal Care International (AAALAC). Rat health was monitored daily by study investigators and veterinarians in the Division of Comparative Medicine UNC. All experimental procedures were carried out in accordance with the NIH Guide to Care and Use of Laboratory Animals (Committee for the Update of the Guide for the Care and Use of Laboratory Animals, 2011) and institutional guidelines.
# Rats were housed individually in standard Plexiglas cages with standard rodent food and water available ad libitum. Upon arrival from the vendor, rats were given 7 days to acclimate to the vivarium during which they were weighed and handled by an investigator each day to monitor general health and habituate them to human contact. Rats were then weighed each day within 1-h of experimental procedures to calculate drug dosages relative to body weight. […] The colony was maintained at […] on a 12-hour light/dark cycle, with the lights on from 10 AM-10 PM. All behavioral experiments were conducted during the light portion of the light cycle.
# Home-cage alcohol drinking method. Oral alcohol and water intake were examined using a two-bottle choice protocol, which is standard in the field and commonly used in our laboratory. Male Wistar rats (n=12) were first adapted to drinking from a 50 ml conical tube fitted with a standard stainless-steel ball bearing sipper tube that limits spillage. Then, two bottles were place on the cage daily. One bottle contained an alcohol solution and the other contained water. Bottles containing fresh solutions were weighed daily before and after a 24 hr access period. After drug treatment, bottles were weighed after 1 hr and 24 hrs of access. Each week, rats had 4-5 days of sweetened alcohol and water available and the remaining days only water.
# Briefly, rats were first exposed to alcohol (10% v/v)+sucrose (5% w/v). versus water in the two bottles. Then, over a period of 6-weeks, the concentrations of alcohol and sucrose were gradually adjusted to alcohol (8% v/v)+sucrose (2% w/v) to achieve intake of pharmacologically relevant doses of alcohol. Rats were maintained at this concentration for the duration of the experiment for both acute (3.1.a) and chronic (3.1.b) home-cage drinking studies. Use of sweetened alcohol solutions in preclinical research provides face validity to the binge-intoxication stage of alcohol addiction in humans where sweeteners are commonly added to alcohol.
# Compound 1 treatment. After establishing baseline intake of sweetened alcohol and water, rats were habituated to i.p. injections. All rats (N=12) were administered 3 habituation injections of vehicle (10% w/v kolliphor in BCD (10%)) prior to the Compound 1 dose response curve and alcohol intake was measured. Then, the Compound 1 dose response curve was conducted with dose order randomized according to a modified Latin-Square design. Rats were given a minimum of 1-2 days between injections to ensure normal drinking was re-established in absence of drug administration. Each dose of Compound 1 (0-10 mg/kg) was administered via i.p. injection and rats were placed back in the home-cage for 1 hr prior to the return of sweetened alcohol and water. Alcohol intake was measured after 1-h and 24-hrs of access in grams by weighing the drinking bottles. Data were excluded from 1 rat that emptied both bottles fully each day without drinking the solutions; thus, results are presented for a final group of N=11 rats.
# Efficacy comparisons to MPEP and Naltrexone. […]
# [4] = tested on: cue-induced reinstatement of alcohol-seeking behavior in Wistar rats; settings: earlier work of the authors; cited from earlier work
# [5] = yohimbine 2 mg/kg after saline pretreatment
Structure (SMILES),"cocaine reinstatement, Mean Diff., Last Day of Cocaine Retraining vs. Saline - Yohimbine 2 mg/kg [1, 5]","cocaine reinstatement, Mean Diff., Last Day of Extinction vs. Saline - Yohimbine 2 mg/kg [1, 5]","reinstatement of cocaine self-administration after extinction ([1]; yohimbine 2 mg/kg, P<0.001)",reinstatement of oxycodone self-administration relative to extinguished level [2],"alcohol intake at the 24-hr measurement interval, comparison of equivalent doses [3]","alcohol drinking at 1-hr of access vs vehicle control, positive control comparison ([3]; N=11)",cue-induced reinstatement in rats [4]
"COC(=O)[C@@H]1[C@H]2C[C@H]3c4[nH]c5ccccc5c4CCN3C[C@@H]2CC[C@@H]1O [Yohimbine, yohimbine]",6.294,−14.53,induced significant reinstatement,induced significant reinstatement,–,–,–
"Cc1cccc(C#Cc2ccccc2)n1 [MPEP, reference compound]",–,–,–,–,only Compound 1 (3 mg/kg) maintained efficacy,significantly decreased alcohol drinking,blocks cue-induced reinstatement
